Reference: patent US20250213550A1, “COMPOUNDS AND METHODS FOR TREATING INFLAMMATORY BOWEL DISEASE” (Gilead Sciences, Inc., priority 2023, published 2025)
Like-named read-outs stand apart in the source and are kept apart here.

How the values were obtained:
Assay type in all cases: in vivo, human
[1] = Phase 1 single- and multiple-ascending dose study: plasma PK of Compound A after oral Compound 1; conditions: for Ctau / AUCtau/D / Cmax/D / AUC: Day 10, mean; for AUCtau/D / Cmax/D: dose-normalized; for half-life / AUC / Tmax: human, plasma
Experimental: A 2-part, single- and multiple-ascending dose sponsor-unblinded Phase 1 study was conducted for Cohorts 1-9 to evaluate the safety, tolerability, PK, and PD of Compound 1 in healthy participants. Up to 72 participants ages 18 to 55 years (inclusive) and having body mass index (BMI) of ≥19.0 and ≤30.0 kg/m^2 were enrolled. For Cohort 9, participants were homozygous for the UGT1A1*28 allele (UGT1A1 *28/*28: TA7/TA7).
Part A proceeded in 4 staggered, dose-escalation cohorts. Within each of Cohorts 1-4, 8 unique participants were randomized 3:1 to receive blinded Compound 1 (N=6) or placebo-to-match (PTM) (N=2). The dose of Compound 1 for all adaptive cohorts (Cohorts 2, 3, and 4) was determined based on cumulative safety and available PK data through a minimum of Day 3 from previous cohorts, not exceeding the specified upper dose limit (Table 2). Dosing in Part A was completed prior to proceeding with Part B.
Part B proceeded in up to 5 staggered, dose-escalation cohorts. Within each of Cohorts 5-9, 8 unique participants were randomized 3:1 to receive blinded Compound 1 (N=6) or PTM (N=2). Start of multiple dosing within Adaptive Cohort 5 was determined by review of the cumulative safety and PK data through at least Day 3 of the final cohort in Part A. Initiation of subsequent multiple-dose cohorts at a higher dose (Cohorts 6, 7, 8, and 9) was determined based on cumulative safety through at least Day 10 from all participants enrolled in the previous multiple-dose cohort (Table 3).
For Cohorts 1-4, plasma PK sampling occurred relative to the dose of Compound 1 at the following time points: • Day 1: 0 (pre-dose, ≤5 min prior to dosing), 0.25, 0.5, 1, 1.5, 2, 3, 4, 6, 8, 12, 18, 24, 36, 48, 72, 96, and 120 hours post-dose A single plasma PK sample was collected at early termination (ET), if applicable.
For Cohorts 5-9, plasma PK sampling occurred relative to the dose of Compound 1 at the following time points: • Day 1 (Cohorts 8 and 9): pre-dose (≤5 min before dose), 0.5, 1, 2, 3, 4, 6, 8, 12, 13, 14, 15, 16, 18, and 20 hours post-dose (relative to AM dose) • Day 10 (Cohorts 5-9): pre-dose (≤5 min before dose), 0.25, 0.5, 1, 1.5, 2, 3, 4, 6, 8, 12, 18, 24, 36, 48, 72, 96, and 120 hours post-dose • A pre-dose sample was collected on Days 2, 4, 7, and 8. A single plasma PK sample was collected at early termination (ET), if applicable.
Concentrations of Compound 1, and its respective metabolites Compound A and Compound B in plasma PK samples were determined by validated high-performance liquid chromatography-tandem mass spectrometry (LC-MS/MS) bioanalytical methods.
Pharmacokinetic parameters for Compound 1 and its metabolites were determined from the plasma concentration-time profiles for all evaluable participants.
Compound 1 was administered under fasting conditions following an overnight fast (no food or drinks except water) for at least 10 hours; food could be consumed 4 hours after administration of Compound 1.

[2] = Food effect on Compound A plasma PK after single dose Compound 1 600 mg; conditions: for Tmax: 600 mg, read-out: median Tmax
Experimental: (§1) A Phase 1, open-label, single-center, multiple-cohort study was conducted to evaluate the effect of a mixed OATP/P-gp inhibitor (cyclosporine A; CsA) or food on the PK of Compound 1, the effect of Compound 1 on the PK of midazolam (MDZ), the effect of Compound 1 on the PK of OATP/CYP3A/BCRP substrates using atorvastatin (ATV), pravastatin (PRA), and rosuvastatin (ROS), and the effect of Compound 1 on the PK of a representative combined oral contraceptive (drospirenone/ethinyl estradiol; DRSP/EE), in healthy participants. 70 participants ages 18 to 55 years (inclusive) and having BMI of ≥18.0 kg/m^2 and ≤30.0 kg/m^2 were enrolled. For Cohorts 1-3, there were an approximately even distribution of healthy participants assigned male at birth and nonpregnant, nonlactating participants assigned female at birth. Cohort 4 included only healthy, nonpregnant, nonlactating participants assigned female at birth.
Participants in Cohort 1 were randomized to 1 of 2 treatment sequences (ABC or BAC), in a 1:1 ratio.
Treatment A: Single dose of Compound 1 600 mg, administered in the AM, under fasted conditions
Treatment B: Single dose of Compound 1 600 mg, administered in the AM, within 5 minutes of completing a high-fat/high-calorie meal
• Periods 1, 2, and 3: Day 1, 0 (pre-dose, ≤5 min before dose), 0.25, 0.5, 1, 1.5, 2, 3, 4, 6, 8, 12, 18, 24, 36, 48, 72, and 96 hours post-dose; and at the early termination (ET) visit, as applicable
(§2) Concentrations of Compound 1 and its active metabolites Compound A and Compound B, MDZ and its metabolite 1-OH-MDZ, ATV and its metabolite 2-OH-ATV, PRA, ROS, DRSP, and EE in plasma PK samples were determined by validated high performance liquid chromatography tandem mass spectrometry (LC-MS/MS) bioanalytical methods.
Pharmacokinetic parameters were determined for Compound 1 and its metabolites for all cohorts, MDZ and 1-OH-MDZ for Cohort 2; ATV, 2-OH-ATV, PRA, and ROS for Cohort 3; and DRSP and EE for Cohort 4.

OATP/P-gp = test: Drug-drug interaction: mixed OATP/P-gp inhibitor CsA on PK of Compound A; conditions: co-administration of Compound 1 600 mg with CsA 600 mg, fasted
Experimental: as §1
Treatment C: Single dose of Compound 1 600 mg, administered in the AM, under fasted conditions with a single dose of CsA 600 mg […]
as §2

[3] = Cohort 5, 75 mg Cpd 1 QD fasted
[4] = Cohort 6, 300 mg Cpd 1 QD fasted
[5] = Cohort 7, 900 mg Cpd 1 QD fasted
[6] = Compound 1 600 mg single dose, vs fasting

`Cn1ccc2c([C@H](Nc3cc(Cl)c4ncc(C#N)c(NCC(C)(C)C)c4c3)c3cn(C45CC(C4)C5)nn3)cccc2c1=O` [Compound A] showed a Ctau [1, 3] of 0.273 µg/mL, a Ctau [1, 4] of 1.07 µg/mL and a Ctau [1, 5] of 2.33 µg/mL. The “time to steady-state exposures” value ([1]; Compound 1 once-daily dosing) was no more than 7 days, the AUCtau/D [1, 3] was 0.141 µg·h/mL and the Cmax/D [1, 3] was 13.1 ng/mL. It also gave an AUCtau/D [1, 4] of 0.125 µg·h/mL, a Cmax/D [1, 4] of 10.6 ng/mL and an AUCtau/D [1, 5] of 0.0691 µg·h/mL. For the same compound, the Cmax/D [1, 5] was 5.5 ng/mL, the half-life ([1]; oral, 75 mg, Cohort 5, 75 mg Cpd 1 QD fasted, Day 10, median, read-out: t1/2 (converted)) was 21.8 h and the half-life ([1]; oral, 300 mg, Cohort 6, 300 mg Cpd 1 QD fasted, Day 10, median, read-out: t1/2 (converted)) was 19 h. The half-life ([1]; oral, 900 mg, Cohort 7, 900 mg Cpd 1 QD fasted, Day 10, median, read-out: t1/2 (converted)) was 28.5 h, the half-life ([1]; oral, across Compound 1 dose levels, single or multiple doses, read-out: median t1/2) was 20 to 30 h and the AUC ([1]; oral, Cohort 5, 75 mg Cpd 1 QD fasted) was 10500 ng·h/mL. For the same compound, the Tmax ([1]; oral, Cohort 5, 75 mg Cpd 1 QD fasted, Day 10, median, read-out: Tmax) was 3 h, the AUC ([1]; oral, Cohort 6, 300 mg Cpd 1 QD fasted) was 37400 ng·h/mL and the Tmax ([1]; oral, Cohort 6, 300 mg Cpd 1 QD fasted, Day 10, median, read-out: Tmax) was 4 h. For the same compound, the AUC ([1]; oral, Cohort 7, 900 mg Cpd 1 QD fasted) was 62200 ng·h/mL, the Tmax ([1]; oral, Cohort 7, 900 mg Cpd 1 QD fasted, Day 10, median, read-out: Tmax) was 3.01 h and the Tmax ([1]; oral, multiple doses of Compound 1 (75 to 900 mg QD, 600 mg BID), fasted, range across cohorts, read-out: median Tmax) was 2 to 4 h. The half-life ([1]; oral, multiple doses of Compound 1 (75 to 900 mg QD, 600 mg BID), fasted, range across cohorts, read-out: median t1/2) was 19 to 28 h, the half-life ([1]; po, single oral doses of Compound 1 (300 to 1500 mg), fasted, range across doses, read-out: median terminal elimination t1/2) was 22 to 29 h and the Tmax ([1]; single oral doses of Compound 1 (300 to 1500 mg), fasted, range across doses, read-out: median Tmax) was 3 to 4 h. For the same compound, the “exposure (AUC) accumulation” value ([1]; multiple dosing of 600 mg Compound 1 once daily) was “approximately 2 fold”, the “steady-state plasma exposure (Cmax and AUC)” value ([1]; multiple once-daily doses of Compound 1, 75 to 900 mg, fasted) was “increased in a dose-dependent manner” and the “plasma exposure (Cmax, AUCinf, and AUClast)” value ([1]; single oral doses of Compound 1, 300 to 900 mg dose range, fasted) was “increased in a dose-dependent manner”. For the same compound, the “change in Cmax by high-fat/high-calorie meal” value [2, 6] was “no change”, the “increase of AUCinf by high-fat/high-calorie meal” value [2, 6] was 92% and the Tmax ([2]; both sexes, human, plasma, oral, Compound 1 600 mg single dose, fasting) was 4 h. The Tmax ([2]; both sexes, human, plasma, oral, Compound 1 600 mg single dose, with a high-fat/high-calorie meal) was 5 h, the AUC(0-inf) ([2]; both sexes, human, plasma, oral, Cpd 1 600 mg single dose, fasting, Treatment A, mean) was 46300 ng·h/mL and the “AUCinf % GLSM Ratio” value ([2]; non-fasting (test) vs fasting (reference), Cpd 1 600 mg) was 192%. For the same compound, the “increase of Compound A AUCinf” value (OATP/P-gp) was 122% and the “increase of Compound A Cmax” value (OATP/P-gp) was 27%.
